Among the data in ChEMBL document CHEMBL6103589, “Synthesis and evaluation of novel ebselen derivatives as urease inhibitors for combating Helicobacter pylori infections” (Eur J Med Chem, 2025) are Activity values, retold here.

Common to all, as to format: functional
What all share (settings): time 8 hrs

For experiment [1], the system named is Helicobacter pylori. The experiment can be described thus: Protection against Helicobacter pylori ATCC 43504 infected (MOI 400:1) in human GES1 cell injury model assessed as early apoptotic cells at 50 uM pre-treated for 2 hrs followed by bacterial infection measured after 6 hrs by Annexin/V-FITC staining based flow cytometry analysis (reference value: 42.41 %).

Experiment [2] has as its system Helicobacter pylori. The experiment can be described thus: Protection against Helicobacter pylori ATCC 43504 infected (MOI 400:1) in human GES1 cell injury model assessed as early apoptotic cells at 25 uM pre-treated for 2 hrs followed by bacterial infection measured after 6 hrs by Annexin/V-FITC staining based flow cytometry analysis (reference value: 42.41 %).
Experiment [3] relates to Helicobacter pylori. The experiment can be described thus: Protection against Helicobacter pylori ATCC 43504 infected (MOI 25:1) in human GES1 cell injury model assessed as necrotic cells at 25 uM pre-treated for 2 hrs followed by bacterial infection measured after 6 hrs by Annexin/V-FITC staining based flow cytometry analysis (reference value: 0.66%). For orientation: Flow cytometry measures light scatter and fluorescence of single cells or particles in a stream.

The subject of experiment [4] is Helicobacter pylori. The experiment can be described thus: Protection against Helicobacter pylori ATCC 43504 infected (MOI 50:1) in human GES1 cell injury model assessed as necrotic cells at 25 uM pre-treated for 2 hrs followed by bacterial infection measured after 6 hrs by Annexin/V-FITC staining based flow cytometry analysis (reference value: 2.85%).

`O=C(Oc1n[se]c2ccccc12)c1cccc(F)c1`: the Activity is on record as 7.61% in experiment [1], 17.23% in experiment [2], 0.02% in experiment [3] and 0.14% in experiment [4].
